Results on four compounds are retold here after patent US20160130352A1, “RHAMM, A CO-RECEPTOR AND ITS INTERACTIONS WITH OTHER RECEPTORS IN CANCER CELL MOTILITY AND THE IDENTIFICATION OF CANCER PROGNITOR CELL POPULATIONS” (THE REGENTS OF THE UNIVERSITY OF CALIFORNIA, priority 2006, published 2016).

The term Cmax denotes the highest concentration seen after dosing. What is called Tmax is the time from dosing to the highest level.

One data set relates to MDA-MB-231 cells. In words: Time-lapse cinemicrography random motility. Type of data set: cell-based, human. On the procedure:
(§1) Random motility analyses were performed to quantify the effect of the blocking Rhamm and CD44 antibodies, HA binding peptide, hyaluronan, and the MEK inhibitor, PD098059 on cell motility. Cells were seeded on T-25 flasks (Costar, Cambridge. Mass.) at 1×10^5 cells/flask. Cells were incubated with anti-Rhamm antibody (30 μg/ml), anti-CD44 antibody (30 μg/ml), a mixture of anti-Rhamm (30 μg/ml) and anti-CD44 antibodies ([…]), HA binding peptide (1 μg/ml) or its scrambled control (1 μg/ml), and/or 50 μM PD098059 for 30 minutes prior to filming. Alternatively, cells were stimulated with 50 μg/L of HA immediately prior to filming. As a control, a mixture of mouse and rabbit IgG (30 μg/ml each), DMSO (for PD098059) or PBS (for HA) were used. Cell locomotion was monitored for a period of 6 hours using a 10× modulation objective (Zeiss, Germany) attached to a Zeiss Axiovert 100 inverted microscope equipped with Hoffman Modulation contrast optical filters (Greenvale, N.Y.) and a 37° C. heated stage. Cell images were captured with a CCD video camera module attached to a Hamamatsu CCD camera controller. Motility was assessed using Northern Exposure 2.9 image analysis software (Empix Imaging, Mississauga, Ontario). Nuclear displacement of 20-30 cells was measured and data were subjected to statistical analysis (see below). Each experiment was repeated at least three times. PD098059 MEK inhibitor was used to test the involvement of the MAP kinase pathway in the motility of these cells. The cells were incubated with the MEK1 inhibitor at 50 μM in complete culture medium 30 minutes before the beginning of motility filming. DMSO alone was used as a control. The results of motility analyses were expressed as means (μm/hour) means±standard deviations, unless otherwise indicated.

The test system of another data set is MCF7 cells. In words: Time-lapse cinemicrography random motility. The data set is classed as cell-based, human. Conditions: for motility: peptide 1 μg/ml, 30 minutes prior to filming. On the procedure:
as §1, with “Alternatively, cells were stimulated with 50 μg/L of HA immediately prior to filming.” left out

Details of data set [1]: species or system humans. The conditions noted are these: human, in vivo, iv.
Data set [2] is described as follows: Kinetics and tolerability of HA injected I.V. in rats. Conditions: I.V. 1-12 mg/kg. The data set is classed as in vivo.
Details of data set [3]: species or system mice. Conditions: mouse, in vivo, iv. From the text: J Am Chem Soc. 125(25): p. 7494-5, hereby incorporated by reference), MDA-MB-231 breast tumor xenografts which express high levels of Rhamm and CD44 (FIG. 2A) and the liver, whose endothelial cells express the HA endocytic receptor, Hare (See FIG. 13D and Weigel, P. H. and J. H. Yik, 2002. Glycans as endocytosis signals: the cases of the asialoglycoprotein and hyaluronan/chondroitin sulfate receptors. Biochim Biophys Acta. 1572(2-3): p. 341-63).

A short description of data set [4]: Pharmacokinetic parameters of HA in serum by route of administration (competitive binding ELISA). The data set is classed as in vivo. From the text:
Table 2 below is a summary of the kinetic analysis of HA in serum by different routes of administration.
Background: In an ELISA, binding on a coated surface is turned into a signal by an enzyme label.

The mark [5] stands for this setting: PD098059 50 μM and/or anti-Rhamm antibodies.
The mark [6] stands for this setting: serum starved 24-48 hours, 25-50 μg/ml exogenous HA.
Setting [7] is: peptide 1 μg/ml, 30 minutes prior to filming.

Where two headings read alike, the source gives them in different places.

For the compound `COc1cccc(-c2cc(=O)c3ccccc3o2)c1N` [PD098059], the basal motility rate entry with MDA-MB-231 cells (setting [5]) was “significantly inhibited”. In the data set with MCF7 cells (setting [5]), the basal motility result was “no effect”.
With Hyaluronan [HA], in the data set with MDA-MB-231 cells (setting [6]), the motility entry is recorded as “significantly stimulated motility”. In addition, the motility rate result in the data set on MCF7 cells (setting [6]) was “no effect”. In addition, the half-life result in data set [1] and in data set [3] was “up to 12 hrs” each time. The “T1/2 (HA serum levels)” value in data set [1] (1.5 mg/kg) worked out at 12 h. For the same compound, the tolerability entry in data set [2] is listed as “well tolerated”. For the same compound, the Cmax in data set [4] (Intravenous) was 5096.00 µg/mL; in data set [4] (Oral), 0.15 µg/mL; in data set [4] (Subcutaneous), 1454.00 µg/mL. In addition, the results for the Tmax in data set [4] (Intravenous), in data set [4] (Oral) and in data set [4] (Subcutaneous) were 12 h, 36 h and 72 h, respectively.
On to YKQKIKHVVKLK [HA-binding peptide], for which the motility entry was “significantly reduced motility” in the data set with MDA-MB-231 cells (setting [7]) and “no effect” in the data set with MCF7 cells.
Take “YLKQKKVKKHIV [scrambled control peptide]”: the motility result in the data set with MDA-MB-231 cells (setting [7]) and with MCF7 cells was “no effect” in each case.
